In patent US20230398130A1, “METHODS AND COMPOSITIONS FOR DIFFERENTIATING STEM CELLS” (Massachusetts Institute of Technology, priority 2020, published 2023):

Legend:
ISC-enriched organoids [1] = test: Primary screen, 384-well 2.5-D organoid differentiation (ENR+CD, 6 days): carbachol-induced lysozyme secretion (LYZ.S); assay type: cell-based, murine; conditions: primary screen; for Dose.FC.LYZ.S: FC vs plate median; for Z.LYZ.S: standard z score; for SSMD.LYZ.S: strictly standardized mean difference
From the text: (§1) High-throughput screening.

ISC-enriched organoids [2] = test: Primary screen, 384-well 2.5-D organoid differentiation (ENR+CD, 6 days, Target Selective Inhibitor Library, vs whole-plate median): ATP (CellTiter-Glo 3D, CTG); conditions: for Dose.FC.CTG: FC vs plate median; for SSMD.CTG: strictly standardized mean difference
ISC-enriched organoids [3] = test: Primary screen, 384-well 2.5-D organoid differentiation (ENR+CD, 6 days): basal lysozyme secretion (LYZ.NS); assay type: cell-based, murine; conditions: for Dose.FC.LYZ.NS: FC vs plate median; for SSMD.LYZ.NS: strictly standardized mean difference
From the text: as §1

[4] = primary screen, dose 0.08 uM, ENR+CD 6 days
[5] = primary screen, dose 0.08 uM, standard z score of FC
[6] = primary screen, dose 0.40 uM, ENR+CD 6 days
[7] = primary screen, dose 0.40 uM, standard z score of FC
[8] = primary screen, dose 2.00 uM, ENR+CD 6 days
[9] = primary screen, dose 2.00 uM, standard z score of FC
[10] = primary screen, dose 10.00 uM, ENR+CD 6 days
[11] = primary screen, dose 10.00 uM, standard z score of FC
[12] = Dose 0.08 uM, standard z score of FC
[13] = Dose 0.40 uM, standard z score of FC
[14] = Dose 2.00 uM, standard z score of FC
[15] = Dose 10.00 uM, standard z score of FC
[16] = 1st of the 4 dose lines of the treatment (dose not given)
[17] = 2nd of the 4 dose lines of the treatment (dose not given)
[18] = 3rd of the 4 dose lines of the treatment (dose not given)
[19] = 4th of the 4 dose lines of the treatment (dose not given)
[20] = Dose 0.08 uM, primary screen, standard z score
[21] = Dose 0.40 uM, primary screen, standard z score
[22] = Dose 2.00 uM, primary screen, standard z score
[23] = Dose 10.00 uM, primary screen, standard z score
[24] = primary screen, 1st of the 4 dose lines of the treatment (dose not given)
[25] = primary screen, 2nd of the 4 dose lines of the treatment (dose not given)
[26] = primary screen, 3rd of the 4 dose lines of the treatment (dose not given)
[27] = primary screen, 4th of the 4 dose lines of the treatment (dose not given)

## O=C(Oc1cc(S(=O)(=O)c2ccccc2)ccc1[N+](=O)[O-])c1ccc(Cl)cc1 [BTB06584]
ISC-enriched organoids [1]; dose 0.08 uM, ENR+CD 6 days
  Dose.FC.LYZ.S: 0.222 log 2 fold change
ISC-enriched organoids [1]; dose 0.40 uM, ENR+CD 6 days
  Dose.FC.LYZ.S: 0.042 log 2 fold change
ISC-enriched organoids [1]; dose 2.00 uM, ENR+CD 6 days
  Dose.FC.LYZ.S: 0.039 log 2 fold change
ISC-enriched organoids [1]; dose 10.00 uM, ENR+CD 6 days
  Dose.FC.LYZ.S: 0.019 log 2 fold change
ISC-enriched organoids [2]; [4]
  Dose.FC.CTG: 0.275 log 2 fold change
ISC-enriched organoids [2]; [5]
  Z.CTG: 0.657
ISC-enriched organoids [2]; [6]
  Dose.FC.CTG: 0.288 log 2 fold change
ISC-enriched organoids [2]; [7]
  Z.CTG: 0.688
ISC-enriched organoids [2]; [8]
  Dose.FC.CTG: −0.180 log 2 fold change
ISC-enriched organoids [2]; [9]
  Z.CTG: −0.431
ISC-enriched organoids [2]; [10]
  Dose.FC.CTG: 0.199 log 2 fold change
ISC-enriched organoids [2]; [11]
  Z.CTG: 0.475
ISC-enriched organoids [3]; [4]
  Dose.FC.LYZ.NS: 0.091 log 2 fold change
ISC-enriched organoids [3]; [5]
  Z.LYZ.NS: 0.795
ISC-enriched organoids [3]; [6]
  Dose.FC.LYZ.NS: 0.025 log 2 fold change
ISC-enriched organoids [3]; [7]
  Z.LYZ.NS: 0.214
ISC-enriched organoids [3]; [8]
  Dose.FC.LYZ.NS: 0.024 log 2 fold change
ISC-enriched organoids [3]; [9]
  Z.LYZ.NS: 0.206
ISC-enriched organoids [3]; [10]
  Dose.FC.LYZ.NS: −0.031 log 2 fold change
ISC-enriched organoids [3]; [11]
  Z.LYZ.NS: −0.268

## OG-L002
ISC-enriched organoids [1]; Dose 0.08 uM
  Dose.FC.LYZ.S: 0.023 log 2 fold change
ISC-enriched organoids [1]; Dose 0.40 uM
  Dose.FC.LYZ.S: 0.026 log 2 fold change
ISC-enriched organoids [1]; Dose 2.00 uM
  Dose.FC.LYZ.S: −0.001 log 2 fold change
ISC-enriched organoids [1]; Dose 10.00 uM
  Dose.FC.LYZ.S: −0.084 log 2 fold change
ISC-enriched organoids [2]; Dose 0.08 uM, primary screen
  Dose.FC.CTG: 0.094 log 2 fold change
ISC-enriched organoids [2]; [12]
  Z.CTG: 0.225
ISC-enriched organoids [2]; Dose 0.40 uM, primary screen
  Dose.FC.CTG: 0.138 log 2 fold change
ISC-enriched organoids [2]; [13]
  Z.CTG: 0.329
ISC-enriched organoids [2]; Dose 2.00 uM, primary screen
  Dose.FC.CTG: 0.128 log 2 fold change
ISC-enriched organoids [2]; [14]
  Z.CTG: 0.306
ISC-enriched organoids [2]; Dose 10.00 uM, primary screen
  Dose.FC.CTG: 0.094 log 2 fold change
ISC-enriched organoids [2]; [15]
  Z.CTG: 0.225
ISC-enriched organoids [3]; Dose 0.08 uM, primary screen
  Dose.FC.LYZ.NS: 0.000 log 2 fold change
ISC-enriched organoids [3]; [12]
  Z.LYZ.NS: −0.001
ISC-enriched organoids [3]; Dose 0.40 uM, primary screen
  Dose.FC.LYZ.NS: −0.011 log 2 fold change
ISC-enriched organoids [3]; [13]
  Z.LYZ.NS: −0.097
ISC-enriched organoids [3]; Dose 2.00 uM, primary screen
  Dose.FC.LYZ.NS: 0.021 log 2 fold change
ISC-enriched organoids [3]; [14]
  Z.LYZ.NS: 0.182
ISC-enriched organoids [3]; Dose 10.00 uM, primary screen
  Dose.FC.LYZ.NS: −0.091 log 2 fold change
ISC-enriched organoids [3]; [15]
  Z.LYZ.NS: −0.790

## O=C(c1cn(Cc2cncn2Cc2ccc(Br)cc2)cc1-c1cccc2ccccc12)N1CCOCC1 [LB42708]
ISC-enriched organoids [1]; Dose 0.08 uM
  Dose.FC.LYZ.S: −0.089 log 2 fold change
ISC-enriched organoids [1]; Dose 0.40 uM
  Dose.FC.LYZ.S: −0.144 log 2 fold change
ISC-enriched organoids [1]; Dose 2.00 uM
  Dose.FC.LYZ.S: −0.238 log 2 fold change
ISC-enriched organoids [1]; Dose 10.00 uM
  Dose.FC.LYZ.S: −0.233 log 2 fold change
ISC-enriched organoids [1]; [16]
  Z.LYZ.S: −0.576
  SSMD.LYZ.S: −0.519
ISC-enriched organoids [1]; [17]
  Z.LYZ.S: −0.934
  SSMD.LYZ.S: −0.630
ISC-enriched organoids [1]; [18]
  Z.LYZ.S: −1.539
  SSMD.LYZ.S: −0.965
ISC-enriched organoids [1]; [19]
  Z.LYZ.S: −1.509
  SSMD.LYZ.S: −0.864
ISC-enriched organoids [2]; Dose 0.08 uM, primary screen
  Dose.FC.CTG: −0.072 log 2 fold change
ISC-enriched organoids [2]; [20]
  Z.CTG: −0.172
ISC-enriched organoids [2]; Dose 0.40 uM, primary screen
  Dose.FC.CTG: −0.342 log 2 fold change
ISC-enriched organoids [2]; [21]
  Z.CTG: −0.817
ISC-enriched organoids [2]; Dose 2.00 uM, primary screen
  Dose.FC.CTG: −0.116 log 2 fold change
ISC-enriched organoids [2]; [22]
  Z.CTG: −0.277
ISC-enriched organoids [2]; Dose 10.00 uM, primary screen
  Dose.FC.CTG: −0.706 log 2 fold change
ISC-enriched organoids [2]; [23]
  Z.CTG: −1.685
ISC-enriched organoids [2]; [24]
  SSMD.CTG: −0.254
ISC-enriched organoids [2]; [25]
  SSMD.CTG: −0.531
ISC-enriched organoids [2]; [26]
  SSMD.CTG: −0.186
ISC-enriched organoids [2]; [27]
  SSMD.CTG: −1.059
ISC-enriched organoids [3]; Dose 0.08 uM, primary screen
  Dose.FC.LYZ.NS: −0.116 log 2 fold change
ISC-enriched organoids [3]; [20]
  Z.LYZ.NS: −1.010
ISC-enriched organoids [3]; Dose 0.40 uM, primary screen
  Dose.FC.LYZ.NS: −0.140 log 2 fold change
ISC-enriched organoids [3]; [21]
  Z.LYZ.NS: −1.221
ISC-enriched organoids [3]; Dose 2.00 uM, primary screen
  Dose.FC.LYZ.NS: −0.176 log 2 fold change
ISC-enriched organoids [3]; [22]
  Z.LYZ.NS: −1.531
ISC-enriched organoids [3]; Dose 10.00 uM, primary screen
  Dose.FC.LYZ.NS: −0.182 log 2 fold change
ISC-enriched organoids [3]; [23]
  Z.LYZ.NS: −1.587
ISC-enriched organoids [3]; [24]
  SSMD.LYZ.NS: −1.118
ISC-enriched organoids [3]; [25]
  SSMD.LYZ.NS: −1.157
ISC-enriched organoids [3]; [26]
  SSMD.LYZ.NS: −1.034
ISC-enriched organoids [3]; [27]
  SSMD.LYZ.NS: −0.939

## Cc1ccc(S(=O)(=O)c2ccc([N+](=O)[O-])o2)cc1 [NSC697923]
ISC-enriched organoids [1]; Dose 0.08 uM
  Dose.FC.LYZ.S: 0.036 log 2 fold change
ISC-enriched organoids [1]; Dose 0.40 uM
  Dose.FC.LYZ.S: 0.108 log 2 fold change
ISC-enriched organoids [1]; Dose 2.00 uM
  Dose.FC.LYZ.S: −0.154 log 2 fold change
ISC-enriched organoids [1]; Dose 10.00 uM
  Dose.FC.LYZ.S: −0.270 log 2 fold change
ISC-enriched organoids [2]; Dose 0.08 uM, primary screen
  Dose.FC.CTG: −0.052 log 2 fold change
ISC-enriched organoids [2]; [12]
  Z.CTG: −0.123
ISC-enriched organoids [2]; Dose 0.40 uM, primary screen
  Dose.FC.CTG: −0.014 log 2 fold change
ISC-enriched organoids [2]; [13]
  Z.CTG: −0.033
ISC-enriched organoids [2]; Dose 2.00 uM, primary screen
  Dose.FC.CTG: −0.101 log 2 fold change
ISC-enriched organoids [2]; [14]
  Z.CTG: −0.241
ISC-enriched organoids [2]; Dose 10.00 uM, primary screen
  Dose.FC.CTG: −0.782 log 2 fold change
ISC-enriched organoids [2]; [15]
  Z.CTG: −1.867
ISC-enriched organoids [3]; Dose 0.08 uM, primary screen
  Dose.FC.LYZ.NS: 0.091 log 2 fold change
ISC-enriched organoids [3]; [12]
  Z.LYZ.NS: 0.789
ISC-enriched organoids [3]; Dose 0.40 uM, primary screen
  Dose.FC.LYZ.NS: 0.051 log 2 fold change
ISC-enriched organoids [3]; [13]
  Z.LYZ.NS: 0.441
ISC-enriched organoids [3]; Dose 2.00 uM, primary screen
  Dose.FC.LYZ.NS: −0.104 log 2 fold change
ISC-enriched organoids [3]; [14]
  Z.LYZ.NS: −0.906
ISC-enriched organoids [3]; Dose 10.00 uM, primary screen
  Dose.FC.LYZ.NS: −0.154 log 2 fold change
ISC-enriched organoids [3]; [15]
  Z.LYZ.NS: −1.338
